The values below come from ChEMBL document CHEMBL3132769, “Fragment growing to retain or alter the selectivity of anchored kinase hinge-binding fragments” (Medchemcomm, 2014).

Assay [1] concerns the target Vascular endothelial growth factor receptor 2 (Homo sapiens) (UniProt P35968). The experiment in a line: Inhibition of human KDR cytoplasmic domain expressed in baculovirus assessed as substrate phosphorylation using fluorescence-labelled peptides as substrate at 0.2 uM after 90 mins by microfluidic peptide phosphorylation assay.
Assay [2] has as its target Ribosomal protein S6 kinase alpha-5 (Homo sapiens) (UniProt O75582). Briefly: Inhibition of human full length MSK1 expressed in baculovirus assessed as substrate phosphorylation using fluorescence-labelled peptides as substrate at 0.1 uM after 90 mins by microfluidic peptide phosphorylation assay.
In assay [3] the target is T1, Mitogen-activated protein kinase 12 (Homo sapiens) (UniProt P53778).
T1 sequence (whole entry): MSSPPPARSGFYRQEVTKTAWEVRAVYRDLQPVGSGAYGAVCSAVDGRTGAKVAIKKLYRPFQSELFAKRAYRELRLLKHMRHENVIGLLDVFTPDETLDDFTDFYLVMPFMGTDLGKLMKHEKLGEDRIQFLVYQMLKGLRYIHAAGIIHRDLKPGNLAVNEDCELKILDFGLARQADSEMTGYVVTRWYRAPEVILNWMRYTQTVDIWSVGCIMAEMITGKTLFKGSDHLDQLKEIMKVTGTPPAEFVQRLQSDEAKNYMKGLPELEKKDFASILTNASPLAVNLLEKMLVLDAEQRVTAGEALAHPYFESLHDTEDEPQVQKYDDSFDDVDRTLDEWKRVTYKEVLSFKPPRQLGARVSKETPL
The experiment in a line: Inhibition of human full length p38 gamma expressed in Escherichia coli cell assessed as substrate phosphorylation using fluorescence-labelled peptides as substrate at 420 uM after 90 mins by microfluidic peptide phosphorylation assay.

The target of assay [4] is T2, Protein kinase C epsilon type (Homo sapiens) (UniProt Q02156).
T2 sequence (whole entry): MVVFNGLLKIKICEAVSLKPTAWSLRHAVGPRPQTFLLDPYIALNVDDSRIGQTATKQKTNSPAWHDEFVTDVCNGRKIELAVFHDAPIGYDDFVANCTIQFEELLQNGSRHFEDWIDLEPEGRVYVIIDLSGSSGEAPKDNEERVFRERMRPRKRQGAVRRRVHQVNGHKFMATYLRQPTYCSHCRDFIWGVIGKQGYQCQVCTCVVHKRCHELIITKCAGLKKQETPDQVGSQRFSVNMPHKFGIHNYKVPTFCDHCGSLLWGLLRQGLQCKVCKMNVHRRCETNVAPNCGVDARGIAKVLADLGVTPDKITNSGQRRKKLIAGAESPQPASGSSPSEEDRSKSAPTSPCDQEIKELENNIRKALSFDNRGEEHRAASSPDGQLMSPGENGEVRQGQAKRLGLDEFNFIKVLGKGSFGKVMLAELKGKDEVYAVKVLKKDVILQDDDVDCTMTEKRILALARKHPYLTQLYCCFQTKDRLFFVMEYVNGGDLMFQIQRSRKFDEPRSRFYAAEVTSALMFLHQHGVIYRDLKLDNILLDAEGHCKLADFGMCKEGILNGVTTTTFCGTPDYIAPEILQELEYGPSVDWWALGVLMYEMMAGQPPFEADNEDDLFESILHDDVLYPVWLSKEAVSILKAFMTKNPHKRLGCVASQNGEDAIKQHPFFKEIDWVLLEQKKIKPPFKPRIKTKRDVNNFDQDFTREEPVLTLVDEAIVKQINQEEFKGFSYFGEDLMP
The experiment in a line: Inhibition of human truncated PKC epsilon expressed in baculovirus assessed as substrate phosphorylation using fluorescence-labelled peptides as substrate at 95 uM after 90 mins by microfluidic peptide phosphorylation assay.

Assay [5] deals with Tyrosine-protein kinase BTK (Homo sapiens) (UniProt Q06187). The experiment in a line: Inhibition of human full length BTK expressed in baculovirus assessed as substrate phosphorylation using fluorescence-labelled peptides as substrate at 8 uM after 90 mins by microfluidic peptide phosphorylation assay.
In assay [6] the target is Ribosomal protein S6 kinase alpha-2 (Homo sapiens) (UniProt Q15349). Briefly: Inhibition of human full length RSK3 expressed in baculovirus assessed as substrate phosphorylation using fluorescence-labelled peptides as substrate at […] after 90 mins by microfluidic peptide phosphorylation assay.
The target of assay [7] is Calcium/calmodulin-dependent protein kinase type II subunit gamma (Homo sapiens) (UniProt Q13555). The experiment in a line: Inhibition of human CAMK2 gamma catalytic domain expressed in baculovirus assessed as substrate phosphorylation using fluorescence-labelled peptides as substrate at 1000 uM after 90 mins by microfluidic peptide phosphorylation assay.
Assay [8] addresses Tyrosine-protein kinase Fyn (Homo sapiens) (UniProt P06241). Briefly: Inhibition of human full length FYN expressed in baculovirus assessed as substrate phosphorylation using fluorescence-labelled peptides as substrate at 0.06 uM after 90 mins by microfluidic peptide phosphorylation assay.
Assay [9] addresses Calcium/calmodulin-dependent protein kinase type II subunit delta (Homo sapiens) (UniProt Q13557). Briefly: Inhibition of human full length CAMK2D expressed in baculovirus assessed as substrate phosphorylation using fluorescence-labelled peptides as substrate at 0.06 uM after 90 mins by microfluidic peptide phosphorylation assay.
In assay [10] the test system is Fibroblast growth factor receptor 2 (Homo sapiens), P21802 [N549H]. Briefly: Inhibition of human FGFR2 N549H mutant catalytic domain expressed in baculovirus assessed as substrate phosphorylation using fluorescence-labelled peptides as substrate at 0.06 uM after 90 mins by microfluidic peptide phosphorylation assay.
Assay [11] has as its target Protein kinase C gamma type (Homo sapiens) (UniProt P05129). Briefly: Inhibition of human truncated PKC gamma expressed in baculovirus assessed as substrate phosphorylation using fluorescence-labelled peptides as substrate at 70 uM after 90 mins by microfluidic peptide phosphorylation assay.
Assay [12] deals with T3, Serine/threonine-protein kinase Sgk3 (Homo sapiens) (UniProt Q96BR1).
T3 sequence (whole entry): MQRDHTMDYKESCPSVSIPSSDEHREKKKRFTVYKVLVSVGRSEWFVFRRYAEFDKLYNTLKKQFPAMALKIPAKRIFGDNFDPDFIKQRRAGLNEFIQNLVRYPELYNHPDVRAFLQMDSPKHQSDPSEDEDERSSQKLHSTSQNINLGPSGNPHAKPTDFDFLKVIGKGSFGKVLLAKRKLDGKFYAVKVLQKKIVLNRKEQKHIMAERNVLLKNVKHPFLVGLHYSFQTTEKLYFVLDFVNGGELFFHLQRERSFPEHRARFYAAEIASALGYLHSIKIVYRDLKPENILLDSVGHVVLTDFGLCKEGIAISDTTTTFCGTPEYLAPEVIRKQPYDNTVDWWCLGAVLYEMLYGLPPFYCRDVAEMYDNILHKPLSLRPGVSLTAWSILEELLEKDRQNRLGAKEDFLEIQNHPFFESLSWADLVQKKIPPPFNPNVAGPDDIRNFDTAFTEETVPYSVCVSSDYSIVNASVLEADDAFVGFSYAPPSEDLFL
The experiment in a line: Inhibition of human full length SGK3 expressed in baculovirus assessed as substrate phosphorylation using fluorescence-labelled peptides as substrate at 70 uM after 90 mins by microfluidic peptide phosphorylation assay.

Chain of Tyrosine-protein kinase Fyn (Homo sapiens) (P06241 2-537 limits assumed): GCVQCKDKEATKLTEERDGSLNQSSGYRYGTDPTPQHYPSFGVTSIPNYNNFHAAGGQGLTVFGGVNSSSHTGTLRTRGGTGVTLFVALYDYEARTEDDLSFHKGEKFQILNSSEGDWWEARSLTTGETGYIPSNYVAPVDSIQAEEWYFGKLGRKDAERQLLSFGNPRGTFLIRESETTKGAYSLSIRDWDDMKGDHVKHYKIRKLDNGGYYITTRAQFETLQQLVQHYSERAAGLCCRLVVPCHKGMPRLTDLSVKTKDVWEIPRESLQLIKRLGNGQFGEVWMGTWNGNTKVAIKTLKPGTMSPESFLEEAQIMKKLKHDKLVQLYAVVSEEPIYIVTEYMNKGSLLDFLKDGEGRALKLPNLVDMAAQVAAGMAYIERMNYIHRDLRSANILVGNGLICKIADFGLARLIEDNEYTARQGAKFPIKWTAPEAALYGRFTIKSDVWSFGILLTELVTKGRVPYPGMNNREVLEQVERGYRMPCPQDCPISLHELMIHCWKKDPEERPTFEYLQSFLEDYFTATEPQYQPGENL
Chain of Fibroblast growth factor receptor 2 (Homo sapiens), P21802 [N549H] (P21802 whole entry N549H, the tested form may be a part): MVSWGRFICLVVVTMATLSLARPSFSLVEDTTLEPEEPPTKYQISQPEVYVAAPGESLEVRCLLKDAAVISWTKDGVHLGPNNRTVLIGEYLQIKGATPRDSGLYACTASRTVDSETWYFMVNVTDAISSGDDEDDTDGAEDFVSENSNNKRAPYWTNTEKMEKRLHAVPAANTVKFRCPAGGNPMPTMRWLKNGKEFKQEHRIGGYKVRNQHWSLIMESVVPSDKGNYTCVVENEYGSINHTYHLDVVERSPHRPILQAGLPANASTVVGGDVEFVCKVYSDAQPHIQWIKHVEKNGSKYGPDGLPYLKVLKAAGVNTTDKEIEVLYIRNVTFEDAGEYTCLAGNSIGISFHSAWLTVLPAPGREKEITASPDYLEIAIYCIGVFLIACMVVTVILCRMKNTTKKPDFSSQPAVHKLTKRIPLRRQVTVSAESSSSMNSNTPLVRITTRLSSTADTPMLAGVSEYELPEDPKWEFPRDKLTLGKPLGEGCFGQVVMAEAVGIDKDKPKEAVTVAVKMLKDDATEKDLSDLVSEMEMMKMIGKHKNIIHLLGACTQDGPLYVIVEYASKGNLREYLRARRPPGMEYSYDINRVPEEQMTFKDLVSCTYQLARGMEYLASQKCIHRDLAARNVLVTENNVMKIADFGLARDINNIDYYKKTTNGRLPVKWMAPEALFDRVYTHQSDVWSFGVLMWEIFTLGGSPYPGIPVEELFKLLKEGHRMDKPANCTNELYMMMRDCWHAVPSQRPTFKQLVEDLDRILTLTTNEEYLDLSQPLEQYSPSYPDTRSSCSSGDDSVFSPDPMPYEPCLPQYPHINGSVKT
Chain of Calcium/calmodulin-dependent protein kinase type II subunit delta (Homo sapiens) (Q13557 whole entry, the tested form may be a part): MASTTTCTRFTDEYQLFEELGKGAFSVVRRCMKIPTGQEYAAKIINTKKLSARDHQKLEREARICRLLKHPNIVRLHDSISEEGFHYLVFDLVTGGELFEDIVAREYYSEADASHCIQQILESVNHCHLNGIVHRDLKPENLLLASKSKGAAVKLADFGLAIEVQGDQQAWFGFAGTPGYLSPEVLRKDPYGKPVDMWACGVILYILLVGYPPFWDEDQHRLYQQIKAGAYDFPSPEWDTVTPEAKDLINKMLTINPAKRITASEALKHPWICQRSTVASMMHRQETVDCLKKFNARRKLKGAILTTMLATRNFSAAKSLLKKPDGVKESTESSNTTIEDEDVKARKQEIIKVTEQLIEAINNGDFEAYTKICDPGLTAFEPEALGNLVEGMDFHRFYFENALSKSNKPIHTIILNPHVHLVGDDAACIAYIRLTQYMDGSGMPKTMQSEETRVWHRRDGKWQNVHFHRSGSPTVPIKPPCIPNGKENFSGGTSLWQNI
Chain of Ribosomal protein S6 kinase alpha-5 (Homo sapiens) (O75582 whole entry, looked up): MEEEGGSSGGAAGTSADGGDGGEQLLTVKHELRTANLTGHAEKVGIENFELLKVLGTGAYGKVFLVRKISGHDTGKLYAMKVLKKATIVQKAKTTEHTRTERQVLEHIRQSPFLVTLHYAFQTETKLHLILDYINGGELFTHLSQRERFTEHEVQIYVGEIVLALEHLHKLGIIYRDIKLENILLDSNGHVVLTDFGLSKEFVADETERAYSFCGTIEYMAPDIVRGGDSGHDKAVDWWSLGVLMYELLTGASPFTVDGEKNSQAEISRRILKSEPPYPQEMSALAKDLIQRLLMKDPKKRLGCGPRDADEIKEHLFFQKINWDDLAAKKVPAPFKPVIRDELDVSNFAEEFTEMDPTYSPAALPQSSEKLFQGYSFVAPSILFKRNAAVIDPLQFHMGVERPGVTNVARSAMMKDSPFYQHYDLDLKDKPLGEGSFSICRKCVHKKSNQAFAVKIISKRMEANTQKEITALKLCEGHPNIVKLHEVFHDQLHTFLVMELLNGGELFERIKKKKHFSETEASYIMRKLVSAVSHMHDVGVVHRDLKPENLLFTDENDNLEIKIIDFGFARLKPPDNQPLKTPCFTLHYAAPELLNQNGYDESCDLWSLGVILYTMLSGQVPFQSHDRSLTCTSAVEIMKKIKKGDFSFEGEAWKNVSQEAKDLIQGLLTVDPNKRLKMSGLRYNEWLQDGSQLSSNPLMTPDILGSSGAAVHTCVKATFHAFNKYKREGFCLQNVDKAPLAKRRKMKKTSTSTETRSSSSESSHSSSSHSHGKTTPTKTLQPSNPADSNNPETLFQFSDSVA
Chain of Calcium/calmodulin-dependent protein kinase type II subunit gamma (Homo sapiens) (Q13555 whole entry, the tested form may be a part): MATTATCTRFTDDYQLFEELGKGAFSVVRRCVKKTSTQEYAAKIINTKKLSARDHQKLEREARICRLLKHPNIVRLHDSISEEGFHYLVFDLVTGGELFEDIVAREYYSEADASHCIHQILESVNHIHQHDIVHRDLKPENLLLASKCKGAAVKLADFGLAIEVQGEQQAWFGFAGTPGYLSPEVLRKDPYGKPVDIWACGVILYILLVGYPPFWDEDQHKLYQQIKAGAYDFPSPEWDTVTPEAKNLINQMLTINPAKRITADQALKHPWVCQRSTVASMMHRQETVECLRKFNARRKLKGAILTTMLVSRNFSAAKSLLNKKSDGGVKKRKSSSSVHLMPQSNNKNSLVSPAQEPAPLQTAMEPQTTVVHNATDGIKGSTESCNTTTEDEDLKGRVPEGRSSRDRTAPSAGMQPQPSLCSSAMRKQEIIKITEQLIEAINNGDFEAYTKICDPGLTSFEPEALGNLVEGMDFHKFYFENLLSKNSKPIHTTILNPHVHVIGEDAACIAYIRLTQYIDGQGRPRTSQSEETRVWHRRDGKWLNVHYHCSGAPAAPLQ
Chain of Ribosomal protein S6 kinase alpha-2 (Homo sapiens) (Q15349 whole entry, the tested form may be a part): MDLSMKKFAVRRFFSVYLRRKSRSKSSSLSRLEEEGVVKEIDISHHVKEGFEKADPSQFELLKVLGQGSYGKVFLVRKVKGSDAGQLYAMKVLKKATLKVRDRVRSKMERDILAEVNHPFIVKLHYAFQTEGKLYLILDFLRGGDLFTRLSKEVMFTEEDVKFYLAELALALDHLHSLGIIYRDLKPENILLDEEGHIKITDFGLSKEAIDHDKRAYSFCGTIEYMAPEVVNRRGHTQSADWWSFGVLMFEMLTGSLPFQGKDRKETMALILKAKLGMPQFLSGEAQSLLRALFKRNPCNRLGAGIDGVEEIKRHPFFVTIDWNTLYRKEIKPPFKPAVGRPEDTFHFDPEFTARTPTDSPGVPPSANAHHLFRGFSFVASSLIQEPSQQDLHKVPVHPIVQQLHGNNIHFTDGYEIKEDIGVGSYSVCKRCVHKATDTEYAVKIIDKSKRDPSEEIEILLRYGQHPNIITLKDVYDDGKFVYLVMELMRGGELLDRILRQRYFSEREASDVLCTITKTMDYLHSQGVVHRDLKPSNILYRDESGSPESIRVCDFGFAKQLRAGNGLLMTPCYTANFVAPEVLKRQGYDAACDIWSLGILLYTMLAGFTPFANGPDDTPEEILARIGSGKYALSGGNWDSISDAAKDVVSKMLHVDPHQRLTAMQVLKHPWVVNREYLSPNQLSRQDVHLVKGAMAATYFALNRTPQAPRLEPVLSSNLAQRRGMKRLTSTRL

`Clc1ccc(C2(c3ccc(-c4ncnc5[nH]cnc45)cc3)CCNCC2)cc1`: in assay [1], the inhibition (as a rule, the drop in the measured response relative to a control, in per cent) was determined as 9%.

For the compound `C[C@H](CN(C)C)Oc1nc(Nc2cc3cccc(Cl)c3cn2)cnc1C#N`, the inhibition in assay [2] came out at 0.5%.

With `c1nc(N2CCOCC2)c2nc[nH]c2n1`, the inhibition in [3] was found to be 41.5%.

Turning to `NCCc1ccc(-c2ncnc3[nH]cnc23)cc1`, the inhibition in assay [4] came to 49%.

Regarding `NCC1CCN(c2ncnc3[nH]ccc23)CC1`, in [5], the inhibition worked out at 4.5%.

For the compound `COC(=O)c1cnc(Nc2cnc(C#N)cn2)cc1NCC1CCNCC1`, in assay [6], the inhibition amounted to 44%.

`c1cnc2[nH]ccc2c1`: in assay [7], the inhibition came out at 24.5%.

Consider `NC1(Cc2ccc(Cl)cc2)CCN(c2ncnc3[nH]ccc23)CC1`, for which the inhibition is 3% in assay [8], 0% in assay [9] and 5% in [10].

For the compound `CNCc1ccc(-c2ncnc3[nH]cnc23)cc1`, the inhibition in assay [11] amounted to 64%; in [12], 58%.
